Our source for the IC50 values is paper PMC9974506 (Proceedings of the National Academy of Sciences of the …, 2023).

This experiment deals with T1, BRTNaC1 (broad-range thermal receptor 1) (Scolopendra mutilans, UniProt A0ABF7PQ77).
T1 sequence (A0ABF7PQ77 1-431): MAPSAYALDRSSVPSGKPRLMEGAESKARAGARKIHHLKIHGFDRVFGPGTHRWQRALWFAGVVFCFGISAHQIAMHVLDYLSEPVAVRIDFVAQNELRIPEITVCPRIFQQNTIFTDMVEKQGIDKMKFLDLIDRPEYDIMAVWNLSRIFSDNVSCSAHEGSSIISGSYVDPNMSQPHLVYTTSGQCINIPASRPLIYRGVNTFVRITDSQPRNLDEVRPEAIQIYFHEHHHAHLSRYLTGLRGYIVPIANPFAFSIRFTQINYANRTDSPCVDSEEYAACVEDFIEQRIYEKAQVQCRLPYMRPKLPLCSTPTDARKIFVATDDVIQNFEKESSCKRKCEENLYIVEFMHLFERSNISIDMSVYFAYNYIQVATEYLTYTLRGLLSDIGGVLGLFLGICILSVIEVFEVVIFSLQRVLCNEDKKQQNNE
Put plainly: patch clamp, transfected HEK293 cells, heat-activated current, Hill fit. The format is cell-based. A general note: The patch-clamp technique gives a direct electrical read-out from membranes.

By IC50 is commonly meant the midpoint of a concentration-inhibition curve.

The molecule `C[C@]12CC[C@H]3[C@@H](CCC4=CC(=O)CC[C@@]43C)[C@@H]1CC[C@@H]2O` [testosterone] came in with an IC50 of 3.8 ± 1.1 µM.
